According to patent US6737383B1, “Herbicidal oxadiazolidines” (priority 1999, dated 2004):

Columns and labels:
bedstraw = assay: Test B pre/postemergence bedstraw; format: in vivo, Galium aparine; conditions: Preemergence; for Bedstraw plant response rating: scale 0 to 10, 0 is no effect, 10 is complete control
Method in brief: (§1)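 Herbicidal effect was estimated by eye on a ten-point control scale after plants spent twelve to sixteen days in a greenhouse following soil or foliar treatment. Foliar sprays targeted plants at one to four leaves; all doses were formulated in a non-phytotoxic solvent with surfactant.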

blackgrass = assay: Test B pre/postemergence blackgrass; format: in vivo, Alopecurus myosuroides
Method in brief: as §1

surinam grass = assay: Test B pre/postemergence surinam grass; format: in vivo, Brachiaria decumbens
Method in brief: as §1

cocklebur = assay: Test B pre/postemergence cocklebur; format: in vivo, Xanthium strumarium
Method in brief: as §1

corn = assay: Test B pre/postemergence corn; format: in vivo, Zea mays
Method in brief: as §1

crabgrass = assay: Test B pre/postemergence crabgrass; format: in vivo, Digitaria sanguinalis
Method in brief: as §1

giant foxtail = assay: Test B pre/postemergence giant foxtail; format: in vivo, Setaria faberii
Method in brief: as §1

morningglory = assay: Test B pre/postemergence morningglory; format: in vivo, Ipomoea hederacea
Method in brief: as §1

pigweed = assay: Test B pre/postemergence pigweed; format: in vivo, Amaranthus retroflexus
Method in brief: as §1

soybean = assay: Test B pre/postemergence soybean; format: in vivo, Glycine max
Method in brief: as §1

velvetleaf = assay: Test B pre/postemergence velvetleaf; format: in vivo, Abutilon theophrasti
Method in brief: as §1

wheat = assay: Test B pre/postemergence wheat; format: in vivo, Triticum aestivum
Method in brief: as §1

wild oat = assay: Test B pre/postemergence wild oat; format: in vivo, Avena fatua
Method in brief: as §1

rice = assay: Test B flood test rice; format: in vivo, Oryza sativa
Method in brief: (§2)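 Flood test on plants grown to the 2-leaf stage; treated plants kept in greenhouse twelve to sixteen days, then visually rated against controls on a 0 (no effect) to 10 (complete control) scale.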

smallflower flatsedge = assay: Test B flood test smallflower flatsedge; format: in vivo, Cyperus difformis
Method in brief: as §2

bamyardgrass = assay: Test B flood test barnyardgrass; format: in vivo, Echinochloa crus-galli
Method in brief: as §2

[1] = Postemergence, Rate 62 g/ha, scale of 0 to 10, 0 is no effect, 10 is complete control
[2] = Postemergence, Rate 125 g/ha, scale 0 to 10, 0 is no effect, 10 is complete control
[3] = Postemergence, Rate 500 g/ha, scale 0 to 10, 0 is no effect, 10 is complete control
[4] = Preemergence, Rate 62 g/ha, scale of 0 to 10 where 0 is no effect and 10 is complete control
[5] = Preemergence, Rate 125 g/ha, scale 0 to 10, 0 is no effect, 10 is complete control
[6] = Preemergence, Rate 500 g/ha, scale of 0 to 10 where 0 is no effect and 10 is complete control
[7] = Rate 250 g/ha, Postemergence, scale of 0 to 10 where 0 is no effect and 10 is complete control
[8] = Rate 62 g/ha, flood test species, Pre-emergence, visual evaluation after twelve to sixteen days
[9] = Rate 125 g/ha, under heading Pre-emergence, flood test species, visual evaluation after twelve to sixteen days
[10] = Rate 250 g/ha, Pre-emergence (flood test species), scale 0 to 10, 0 is no effect, 10 is complete control
[11] = Rate 500 g/ha, Pre-emergence section of Table B, 0 to 10 scale (0 no effect, 10 complete control)

`CC(C)N(C(=O)n1oc(=O)n(CC2CCC2)c1=O)c1ccc(F)cc1F` [Compound 521] was tested, and the “Plant response rating, Bedstraw” value (bedstraw; Rate 62 g/ha, scale of 0 to 10 where 0 is no effect and 10 is complete control) was 0, the “Bedstraw plant response rating” value (bedstraw; Rate 125 g/ha) was 0 and the “Bedstraw plant response rating (0 to 10 scale)” value (bedstraw; Rate 250 g/ha) was 0. For the same compound, the “Bedstraw plant response rating” value (bedstraw; Rate 500 g/ha) was 0, the “Blackgrass plant response rating” value (blackgrass; [1]) was 2 and the “Blackgrass plant response rating” value (blackgrass; [2]) was 2. For the same compound, the “Plant response rating, Blackgrass” value (blackgrass; [3]) was 9, the “Plant response rating, Blackgrass” value (blackgrass; [4]) was 0 and the “Blackgrass plant response rating” value (blackgrass; [5]) was 0. For the same compound, the “Blackgrass plant response rating (0 to 10 scale)” value (blackgrass; Preemergence, Rate 250 g/ha) was 0, the “Blackgrass plant response rating” value (blackgrass; [6]) was 3 and the “Plant response rating, Blackgrass” value (blackgrass; [7]) was 7. For the same compound, the “B. signalgrass plant response rating” value (surinam grass; [1]) was 0, the “B. signalgrass plant response rating” value (surinam grass; [2]) was 0 and the “Plant response rating, B. signalgrass” value (surinam grass; [3]) was 3. The “Plant response rating, B. signalgrass” value (surinam grass; [4]) was 0, the “B. signalgrass plant response rating” value (surinam grass; [5]) was 0 and the “B. signalgrass plant response rating (0 to 10 scale, 0 is no effect, 10 is complete control)” value (surinam grass; Preemergence, Rate 250 g/ha) was 0. The “B. signalgrass plant response rating” value (surinam grass; Preemergence, Rate 500 g/ha, scale 0 to 10, 0 is no effect, 10 is complete control) was 9, the “Plant response rating, B. signalgrass” value (surinam grass; [7]) was 0 and the “Cocklebur plant response rating” value (cocklebur; [1]) was 0. For the same compound, the “Cocklebur plant response rating” value (cocklebur; [2]) was 0, the “Plant response rating, Cocklebur” value (cocklebur; [3]) was 0 and the “Plant response rating, Cocklebur” value (cocklebur; [4]) was 0. For the same compound, the “Cocklebur plant response rating” value (cocklebur; [5]) was 0, the “Cocklebur plant response rating (0 to 10 scale)” value (cocklebur; Preemergence, Rate 250 g/ha) was 0 and the “Cocklebur plant response rating” value (cocklebur; [6]) was 0. For the same compound, the “Plant response rating, Cocklebur” value (cocklebur; [7]) was 0, the “Corn plant response rating” value (corn; [1]) was 0 and the “Corn plant response rating” value (corn; [2]) was 0. For the same compound, the “Plant response rating, Corn” value (corn; [3]) was 0, the “Plant response rating, Corn” value (corn; [4]) was 0 and the “Corn plant response rating” value (corn; [5]) was 0. For the same compound, the “Corn plant response rating (0 to 10 scale)” value (corn; Preemergence, Rate 250 g/ha) was 0, the “Corn plant response rating” value (corn; [6]) was 3 and the “Plant response rating, Corn” value (corn; [7]) was 0. The “Crabgrass plant response rating” value (crabgrass; [1]) was 2, the “Crabgrass plant response rating” value (crabgrass; [2]) was 4 and the “Plant response rating, Crabgrass” value (crabgrass; [3]) was 10. For the same compound, the “Plant response rating, Crabgrass” value (crabgrass; [4]) was 10, the “Crabgrass plant response rating” value (crabgrass; [5]) was 10 and the “Crabgrass plant response rating (0 to 10 scale)” value (crabgrass; Preemergence, Rate 250 g/ha) was 10. For the same compound, the “Crabgrass plant response rating” value (crabgrass; [6]) was 10, the “Plant response rating, Crabgrass” value (crabgrass; [7]) was 10 and the “Giant foxtail plant response rating” value (giant foxtail; [1]) was 4. The “Giant foxtail plant response rating” value (giant foxtail; [2]) was 8, the “Plant response rating, Giant foxtail” value (giant foxtail; [3]) was 9 and the “Plant response rating, Giant foxtail” value (giant foxtail; [4]) was 10. For the same compound, the “Giant foxtail plant response rating” value (giant foxtail; [5]) was 10, the “Giant foxtail plant response rating (0 to 10 scale)” value (giant foxtail; Preemergence, Rate 250 g/ha) was 10 and the “Giant foxtail plant response rating” value (giant foxtail; [6]) was 10. The “Plant response rating, Giant foxtail” value (giant foxtail; [7]) was 9, the “Morningglory plant response rating” value (morningglory; [1]) was 3 and the “Morningglory plant response rating” value (morningglory; [2]) was 4. For the same compound, the “Plant response rating, Morningglory” value (morningglory; [3]) was 5, the “Plant response rating, Morningglory” value (morningglory; [4]) was 0 and the “Morningglory plant response rating” value (morningglory; [5]) was 0. For the same compound, the “Morningglory plant response rating (0 to 10 scale)” value (morningglory; Preemergence, Rate 250 g/ha) was 0, the “Morningglory plant response rating” value (morningglory; [6]) was 0 and the “Plant response rating, Morningglory” value (morningglory; [7]) was 3. For the same compound, the “Redroot pigweed plant response rating” value (pigweed; [1]) was 0, the “Redroot pigweed plant response rating” value (pigweed; [2]) was 0 and the “Plant response rating, Redroot pigweed” value (pigweed; [3]) was 4. The “Plant response rating, Redroot pigweed” value (pigweed; [4]) was 0, the “Redroot pigweed plant response rating” value (pigweed; [5]) was 0 and the “Redroot pigweed plant response rating (0 to 10 scale)” value (pigweed; Preemergence, Rate 250 g/ha) was 0. For the same compound, the “Redroot pigweed plant response rating” value (pigweed; [6]) was 0, the “Plant response rating, Redroot pigweed” value (pigweed; [7]) was 0 and the “Soybean plant response rating” value (soybean; [1]) was 4. For the same compound, the “Soybean plant response rating” value (soybean; [2]) was 4, the “Plant response rating, Soybean” value (soybean; [3]) was 5 and the “Plant response rating, Soybean” value (soybean; [4]) was 0. The “Soybean plant response rating” value (soybean; [5]) was 0, the “Soybean plant response rating (0 to 10 scale)” value (soybean; Preemergence, Rate 250 g/ha) was 0 and the “Soybean plant response rating” value (soybean; [6]) was 0. The “Plant response rating, Soybean” value (soybean; [7]) was 5, the “Velvetleaf plant response rating” value (velvetleaf; [1]) was 0 and the “Velvetleaf plant response rating” value (velvetleaf; [2]) was 0. For the same compound, the “Plant response rating, Velvetleaf” value (velvetleaf; [3]) was 3, the “Plant response rating, Velvetleaf” value (velvetleaf; [4]) was 0 and the “Velvetleaf plant response rating” value (velvetleaf; [5]) was 0. For the same compound, the “Velvetleaf plant response rating (0 to 10 scale)” value (velvetleaf; Preemergence, Rate 250 g/ha) was 2, the “Velvetleaf plant response rating” value (velvetleaf; [6]) was 3 and the “Plant response rating, Velvetleaf” value (velvetleaf; [7]) was 2. For the same compound, the “Wheat plant response rating” value (wheat; [1]) was 0, the “Wheat plant response rating” value (wheat; [2]) was 0 and the “Plant response rating, Wheat” value (wheat; [3]) was 2. The “Plant response rating, Wheat” value (wheat; [4]) was 0, the “Wheat plant response rating” value (wheat; [5]) was 0 and the “Wheat plant response rating (0 to 10 scale)” value (wheat; Preemergence, Rate 250 g/ha) was 0. For the same compound, the “Wheat plant response rating” value (wheat; [6]) was 0, the “Plant response rating, Wheat” value (wheat; [7]) was 0 and the “Wild oats plant response rating” value (wild oat; [1]) was 0. For the same compound, the “Wild oats plant response rating” value (wild oat; [2]) was 0, the “Plant response rating, Wild oats” value (wild oat; [3]) was 2 and the “Plant response rating, Wild oats” value (wild oat; [4]) was 0. The “Wild oats plant response rating” value (wild oat; [5]) was 0, the “Wild oats plant response rating (0 to 10 scale)” value (wild oat; Preemergence, Rate 250 g/ha) was 0 and the “Wild oats plant response rating” value (wild oat; [6]) was 2. For the same compound, the “Plant response rating, Wild oats” value (wild oat; [7]) was 0, the “Plant response rating, Rice (0 to 10 scale, 0 is no effect, 10 is complete control)” value (rice; [8]) was 0 and the “Rice plant response rating (0 to 10 scale, 0 is no effect, 10 is complete control)” value (rice; [9]) was 0. The “Rice plant response rating” value (rice; [10]) was 0, the “Rice plant response rating” value (rice; [11]) was 0 and the “Plant response rating, S. Flatsedge (0 to 10 scale, 0 is no effect, 10 is complete control)” value (smallflower flatsedge; [8]) was 0. For the same compound, the “S. Flatsedge plant response rating (0 to 10 scale, 0 is no effect, 10 is complete control)” value (smallflower flatsedge; [9]) was 0, the “S. Flatsedge plant response rating” value (smallflower flatsedge; [10]) was 0 and the “S. Flatsedge plant response rating” value (smallflower flatsedge; [11]) was 0. For the same compound, the “Plant response rating, Barnyardgrass (0 to 10 scale, 0 is no effect, 10 is complete control)” value (bamyardgrass; [8]) was 0, the “Barnyardgrass plant response rating (0 to 10 scale, 0 is no effect, 10 is complete control)” value (bamyardgrass; [9]) was 0 and the “Barnyardgrass plant response rating” value (bamyardgrass; [10]) was 0. The “Barnyardgrass plant response rating” value (bamyardgrass; [11]) was 0.
